What was measured:
[1] = tested on: p-STAT3 (Tyr705) in B16 cells; experiment: p-STAT3 immunoblotting in B16 cells; format: cell-based, murine; conditions: 4 hours, 5 and 10 μM (FIG. 3A)
Protocol: Immunoblotting analysis. Murine melanoma B16 cells and splenocytes were used for protein isolation and immunoblotting analysis as described below. B16 cells were seeded at a density of 2×10^6 cells/well in 6-well culture plates and incubated at 37° C., in an atmosphere containing 5% CO2, with the RPMI 1640 medium overnight. Afterward, B16 cells were cultured in the absence or presence of WP1193 (5 μM, 10 μM). After 3.5 hours, the B16 cells were further cultured in the absence or presence of 20 ng/ml of IFN-α for 30 minutes. For the splenocyte preparation, spleens from two 4- to 6-week-old female mice were harvested and disassociated into a single cell suspension. […] The supernatants were collected and quantified for protein content. […]
Autoradiography of the membranes was performed using Amersham ECL Western blotting detection reagents (Amersham Biosciences). The densities of the protein bands compared with the β-actin protein control were measured with the Image J program provided by the NIH.
In this experiment, B16 cells and splenocytes isolated from C57BL/6J mice and were incubated with either the medium, medium supplemented with titrated WP1193, medium supplemented with IFN-α, or medium supplemented with both IFN-α and WP1193. […] Semi-quantitative densitometry was used to determine the relative levels of p-STAT3 to STAT3 and β-actin.

[2] = tested on: STAT3 in HH, HuT78 and MJ CTCL lines; experiment: STAT3 tyrosine 705 phosphorylation in CTCL lines; format: cell-based, human; conditions: serum starved 18 hours, stimuli 30 minutes (FIG. 7)
Protocol: To determine whether IFN alpha and beta were able to selectively phosphorylate STAT3 in other cell types. Studies were conducted in a range of other biologically relevant cell types. In these experiments, cells were grown in media supplemented with 10% FBS, and then serum starved for 18 hours and exposed to various stimuli for 30 minutes.

[3] = tested on: STAT3 and Jak2 phosphorylation in SUP-T1 lymphoma cell line; experiment: Cytokine signalling in SUP-T1 lymphoma cell line; format: cell-based; conditions: SUP-T1 lymphoma cell line (data not shown)
[4] = tested on: melanoma; conditions: cited from earlier work
[5] = cited from earlier work

Compound | phosphorylation of p-STAT3 [1] | tyrosine phosphorylation of STAT3 (tyrosine 705) [2] | STAT3 and Jak2 phosphorylation [3] | reduction in the relative relapse risk ([4]; high-dose type I IFN-α, stage II and III melanoma, adjuvant trials) | melanoma patients with an objective response ([4]; human, in vivo) [%] | duration of sustained in vivo expression ([5]; after administration of plasmid) | serum level of IFN-α ([5]; single i.v. hydrodynamic injection of 3 μg pORF plasmid encoding murine IFN-α) [ng/mL]
N#C/C(=C\c1cccc(Br)n1)C(=O)N[C@H](c1ccccc1)C1CC1 [WP1193, (S,E)-3-(6-bromopyridin-2-yl)-2-cyano-N-(cyclopropyl(phenyl)methyl)acrylamide] | inhibits the phosphorylation of p-STAT3 | – | – | – | – | – | –
IFN-α | – | selectively stimulates tyrosine phosphorylation of STAT3 | potently induce STAT3 but not Jak2 phosphorylation | 25-33% | 15 | more than 30 days | 0.9

— patent US20130129675A1, “INTERFERON THERAPIES IN COMBINATION WITH BLOCKADE OF STAT3 ACTIVATION” (BOARD OF REGENTS, THE UNIVERSITY OF TEXAS SYSTEM, priority 2009, published 2013)
